Each structure is given as a SMILES string. Like-named read-outs stand apart in the source and are kept apart here.

We go through 5 compounds from patent publication US5470858A, “Derivatives of (hetero)aromatic ethers and thioethers having antihyperlipidemic activity, process for their preparation and pharmaceutical compositions containing them” (Pierrel SpA, priority 1991, dated 1995).

What all share (type): in vivo
In data set [1] the test system is hyperlipaemic SD male rats. The data set can be described thus: Hypolipemizing activity, 5 days experimental model, modified Nath diet. As to conditions: rat, oral; for change in vivo at 100 mg/kg/day / change in vivo at 300 mg/kg/day: 120 h; for Hepatic index (percent variation vs hyperlipaemic controls): index = (Liver weight/body weight) × 100. Here is the method: (§1) The hypolipemizing activity of the compounds of the present invention has been evaluated in the rat using SD male animals (Charles River) of an initial weight of 150 g, housed in controlled environment at a temperature of 21°±1° C., relative humidity 60% and a 12 hours light/dark cycle.
Experimental models have been used in which the animals are rendered hiperlipaemic by "ad libitum" food administration with a modified Nath diet (Atherosclerosis 30, 1978, pag. 45-46) having the following composition: […]
hydrogenated coconut oil
In the first model the animals have been fed with this diet for 5 consecutive days, during which they received the pharmacological treatment once a day by oral route and were sacrificed 2 hours after the last administration.
At the time of the sacrifice the blood was removed, for the lipid determination, as well as the liver the weight of which was the index of a possible hepatomegaly.
By this experimental model the concentration of the serum lipids attained very high values which, in the control group, was four times the normal values for the total cholesterol and the triglycerides.
(§2) The determination of the triglycerides, of the total cholesterol and of the cholesterol associated to the HDL has been effected by means of a commercial enzymatic kit. The concentration of the cholesterol associated to VLDL+LDL has been determined by difference between total cholesterol and HDL.
The results obtained in the experimental model of the 5 days duration for some compounds representative of the invention are reported in the following table 1. The data are expressed as percent variation with respect to the hyperlipaemic controls to which carboxymethylcellulose as 0.5% in water at the dose of 10 ml/kg/day by oral route was administered. The same vehicle was used for the suspension of the tested compounds at the doses of 100 and 300 mg/kg/day by oral route.

The subject of data set [2] is hyperlipaemic SD male rats. Put plainly: Hypolipemizing activity, 15 days experimental model, modified diet. As to conditions: rat, oral; for Cholesterol VLDL + LDL (percent variation vs hyperlipaemic controls): by difference between total and HDL; for Hepatic index (percent variation vs hyperlipaemic controls): index = (Liver weight/body weight) × 100. The method, then:
as §1
Experimental models have been used in which the animals are rendered hiperlipaemic by "ad libitum" food administration with a modified Nath diet (Atherosclerosis 30, 1978, pag. 45-46) having the following composition:
In the second model a diet was used which was modified with respect to the former one by the following parameters: […]
The animals were fasted with this diet for 15 days consecutively, during which they received the pharmacological treatment once a day by oral route and were sacrificed 24 hours after the last administration. At the sacrifice time the blood was removed for the lipid determination and the liver was removed as well to be weighed and used for the evaluation of the catalase enzyme as the index of the peroxysomes proliferation and thus of hepatotoxicity.
This experimental model has been used only for the molecules which in the first model were found more promising, and has permitted to get values of the serum lipids from 2 to 3 times higher than the normal values both for the total cholesterol and for the triglycerides.
This experimental model was used to:
a) evaluate the effectiveness on a less marked hyperlipoproteinaemy, and
b) assess mainly at the hepatic level the tolerability of the compounds during a more extended treatment.
as §2
On the basis of the indications provided by this screening the most interesting compounds have been evaluated by the 15 days experimental model which permits both the evaluation of the effectiveness in the case of a hyperlipaemia less marked and more constant, and the tolerability control of the compounds during a longer term treatment.
In this case too the results (reported in the following table 2) are expressed as the percent variation with respect to the hyperlipaemic controls to which carboxymethylcellulose as 0.5% in water was administered by oral route at the dose of 10 ml/kg/day. The same vehicle was used for the suspension of the compounds being tested, administered at the doses; of 50 and 100 mg/kg/day by oral route.

The next data set has as its system catalase enzyme. The data set can be described thus: Hepatic tolerability, 15 days at high dose: catalase enzyme activity in liver (index of peroxysomes proliferation). To be noted: rat liver, absolute values, solvent 539,8. Here is the method: (§3) The hypolipemizing activity of the compounds of the present invention has been evaluated in the rat using SD male animals (Charles River) of an initial weight of 150 g, housed in controlled environment at a temperature of 21°±1° C., relative humidity 60% and a 12 hours light/dark cycle. The animals were fasted with this diet for 15 days consecutively, during which they received the pharmacological treatment once a day by oral route and were sacrificed 24 hours after the last administration. At the sacrifice time the blood was removed for the lipid determination and the liver was removed as well to be weighed and used for the evaluation of the catalase enzyme as the index of the peroxysomes proliferation and thus of hepatotoxicity. In order to evaluate the hepatic tolerability of the compounds of interest they have been administered for 15 days at a high dose (300 mg/kg/day) according to the same conditions of the previous experiment.24 hours after the last treatment the animals have been sacrificed, and the liver has been removed and stored at -20° C. up to the time of dosing the activity of the catalase enzyme (Methods of enzymatic analysis, vol.2, pag. 673, 1974 edit. H. U. Bergmeyer, Verlag Chemie International).

The next data set has as its system liver. The data set can be described thus: Hepatic tolerability, 15 days at high dose: hepatic index. As to conditions: rat, absolute values, solvent 5,4. Here is the method:
as §3

[3] abbreviates: 100 mg/kg/day, by difference between total and HDL, read-out: Cholesterol VLDL + LDL (percent variation vs hyperlipaemic controls).
Setting [4] is: 100 mg/kg/day, read-out: Cholesterol HDL (percent variation vs hyperlipaemic controls).
Where [5] appears, read: 100 mg/kg/day, read-out: Total Cholesterol (percent variation vs hyperlipaemic controls).
Setting [6] is: 100 mg/kg/day, read-out: Triglycerides (percent variation vs hyperlipaemic controls).
Where [7] appears, read: 300 mg/kg/day, by difference between total and HDL, read-out: Cholesterol VLDL + LDL (percent variation vs hyperlipaemic controls).
Where [8] appears, read: 300 mg/kg/day, read-out: Cholesterol HDL (percent variation vs hyperlipaemic controls).
Where [9] appears, read: 300 mg/kg/day, read-out: Total Cholesterol (percent variation vs hyperlipaemic controls).
The mark [10] stands for this setting: 300 mg/kg/day, read-out: Triglycerides (percent variation vs hyperlipaemic controls).

Regarding `CC(C)COC(=O)c1ccc(OCC(=O)CSc2nc3ccccc3s2)cc1` [Example 2, 2-[3-[(p-isobutyloxycarbonyl)phenoxy]-2-oxo-propylthio]-benzothiazole], the change in vivo at 100 mg/kg/day in data set [1] (setting [3]) is -14.7%; in data set [1] (setting [4]), 10.4%; in data set [1] (setting [5]) it was -13.2%; in data set [1] (setting [6]), -22.1%. Moreover, the change in vivo at 300 mg/kg/day in data set [1] (setting [7]) was -21.8%; in data set [1] (setting [8]), 13.9%; in data set [1] (setting [9]), -19.5%; in data set [1] (setting [10]), -32.5%. The “Hepatic index (percent variation vs hyperlipaemic controls)” value is -6,5% in data set [1] (100 mg/kg/day), -1,6% in data set [1] (300 mg/kg/day), “+3,5%” in data set [2] (50 mg/kg/day) and -4,5% in data set [2] (100 mg/kg/day). In addition, the “Cholesterol HDL (percent variation vs hyperlipaemic controls)” value in data set [2] (50 mg/kg/day) is on record as -24,5%; in data set [2] (100 mg/kg/day) it was -0,4%. Also, the results for the “Total Cholesterol (percent variation vs hyperlipaemic controls)” value in data set [2] (50 mg/kg/day) and in data set [2] (100 mg/kg/day) were -13,1% and -12,9%, respectively. Also, the entries for the “Triglycerides (percent variation vs hyperlipaemic controls)” value in data set [2] (50 mg/kg/day) and in data set [2] (100 mg/kg/day) were -0,2% and -18,7%, respectively. Besides, the “Cholesterol VLDL + LDL (percent variation vs hyperlipaemic controls)” value in data set [2] (50 mg/kg/day) is given as -12,0%; in data set [2] (100 mg/kg/day), -14,0%. Besides, the Catalase enzyme activity in the data set with catalase enzyme (oral, 15 days, 300 mg/kg/day) is recorded as 603,0 umoli/min/mg proteins. For the same compound, in the data set with liver (oral, 15 days, 300 mg/kg/day), the “Hepatic index (Liver weight/body weight) × 100” value is on record as 6,0.

On to `CC(C)COC(=O)c1ccc(OCC(O)CSc2nc3ccccc3s2)cc1` (stereo not shown) [Example 6, 2-[3-[(p-isobutyloxycarbonyl)-phenoxy]-2-hydroxy-propylthio]-benzothiazole], for which the change in vivo at 100 mg/kg/day in data set [1] (setting [3]) was -18.8%; in data set [1] (setting [4]), 7.7%; in data set [1] (setting [5]), -17%; in data set [1] (setting [6]), -15.6%. The change in vivo at 300 mg/kg/day is -27.9% in data set [1] (setting [7]), -24.9% in data set [1] (setting [9]) and -23.4% in data set [1] (setting [10]). Moreover, the “Hepatic index (percent variation vs hyperlipaemic controls)” value was “+2,2%” in data set [1] (100 mg/kg/day), “+0,4%” in data set [1] (300 mg/kg/day), -1,7% in data set [2] (50 mg/kg/day) and -4,1% in data set [2] (100 mg/kg/day). Further, the “Cholesterol HDL (percent variation vs hyperlipaemic controls)” value is listed as “+1,0%” in data set [2] (50 mg/kg/day) and “+4,3%” in data set [2] (100 mg/kg/day). Also, the “Total Cholesterol (percent variation vs hyperlipaemic controls)” value is -16,1% in data set [2] (50 mg/kg/day) and -19,0% in data set [2] (100 mg/kg/day). In addition, the “Triglycerides (percent variation vs hyperlipaemic controls)” value in data set [2] (50 mg/kg/day) was -18,2%; in data set [2] (100 mg/kg/day) it was -49,1%. Moreover, the “Cholesterol VLDL + LDL (percent variation vs hyperlipaemic controls)” value in data set [2] (50 mg/kg/day) is -19,0%; in data set [2] (100 mg/kg/day) it was -21,7%. For the same compound, the Catalase enzyme activity in the data set on catalase enzyme (oral, 15 days, 300 mg/kg/day) is 504,6 umoli/min/mg proteins. Moreover, in the data set on liver (oral, 15 days, 300 mg/kg/day), the “Hepatic index (Liver weight/body weight) × 100” value is 5,9.

Take `CC(C)COC(=O)c1ccc(OCC(O)CSc2nc3ccccc3o2)cc1` (stereo not shown) [Example 11]: the change in vivo at 100 mg/kg/day is -22.8% in data set [1] (setting [3]), 9.5% in data set [1] (setting [4]), -21.4% in data set [1] (setting [5]) and -21.6% in data set [1] (setting [6]). Besides, the change in vivo at 300 mg/kg/day is -39.7% in data set [1] (setting [7]), 14.9% in data set [1] (setting [8]), -37.1% in data set [1] (setting [9]) and -30.3% in data set [1] (setting [10]). Further, the “Hepatic index (percent variation vs hyperlipaemic controls)” value in data set [1] (100 mg/kg/day) was -2,3%; in data set [1] (300 mg/kg/day) it was -1,7%; in data set [2] (50 mg/kg/day), “+0,2%”; in data set [2] (100 mg/kg/day), -3,1%. Further, the figures for the “Cholesterol HDL (percent variation vs hyperlipaemic controls)” value in data set [2] (50 mg/kg/day) and in data set [2] (100 mg/kg/day) were -9,9% and “+16,1%”, respectively. For the same compound, the results for the “Total Cholesterol (percent variation vs hyperlipaemic controls)” value in data set [2] (50 mg/kg/day) and in data set [2] (100 mg/kg/day) were -36,6% and -34,4%, respectively. Also, the “Triglycerides (percent variation vs hyperlipaemic controls)” value in data set [2] (50 mg/kg/day) was -48,5%; in data set [2] (100 mg/kg/day) it was -46,8%. The “Cholesterol VLDL + LDL (percent variation vs hyperlipaemic controls)” value in data set [2] (50 mg/kg/day) was -39,7%; in data set [2] (100 mg/kg/day), -40,2%. Moreover, the Catalase enzyme activity in the data set with catalase enzyme (oral, 15 days, 300 mg/kg/day) was 444,7 umoli/min/mg proteins. In the data set on liver (oral, 15 days, 300 mg/kg/day), the “Hepatic index (Liver weight/body weight) × 100” value is listed as 5,8.

In the case of `CCOC(=O)C(C)(C)Oc1ccc(Cl)cc1` [Clofibrate, reference compound], the Catalase enzyme activity in the data set with catalase enzyme (200 mg/kg, standard) was 680,9 umoli/min/mg proteins. In addition, in the data set on liver (200 mg/kg, standard), the “Hepatic index (Liver weight/body weight) × 100” value is listed as 7,0.

In the case of `CC(C)COC(=O)c1ccc(OCC(=O)CSc2nc3c(N)ncnc3n2[C@@H]2O[C@H](CO)[C@@H](O)[C@H]2O)cc1` [Example 28], the change in vivo at 100 mg/kg/day in data set [1] (setting [3]) was -15.1%; in data set [1] (setting [4]), 5.7%; in data set [1] (setting [5]) it was -14%; in data set [1] (setting [6]) it was -16.3%. Further, the change in vivo at 300 mg/kg/day in data set [1] (setting [7]) was -33.7%; in data set [1] (setting [8]), 22.7%; in data set [1] (setting [9]), -31.3%; in data set [1] (setting [10]), -22.5%. The entries for the “Hepatic index (percent variation vs hyperlipaemic controls)” value in data set [1] (300 mg/kg/day), in data set [2] (50 mg/kg/day) and in data set [2] (100 mg/kg/day) were -5,5%, “+0,6%” and -1,9%, respectively. In addition, the “Cholesterol HDL (percent variation vs hyperlipaemic controls)” value in data set [2] (50 mg/kg/day) is given as “+11,3%”; in data set [2] (100 mg/kg/day), “+21,0%”. In addition, the “Total Cholesterol (percent variation vs hyperlipaemic controls)” value in data set [2] (50 mg/kg/day) is reported as -23,3%; in data set [2] (100 mg/kg/day), -35,3%. The figures for the “Triglycerides (percent variation vs hyperlipaemic controls)” value in data set [2] (50 mg/kg/day) and in data set [2] (100 mg/kg/day) were -27,3% and -35,1%, respectively. Further, the results for the “Cholesterol VLDL + LDL (percent variation vs hyperlipaemic controls)” value in data set [2] (50 mg/kg/day) and in data set [2] (100 mg/kg/day) were -28,1% and -41,7%, respectively. Also, in the data set with catalase enzyme (oral, 15 days, 300 mg/kg/day), the Catalase enzyme activity was 479,7 umoli/min/mg proteins. The “Hepatic index (Liver weight/body weight) × 100” value with liver (oral, 15 days, 300 mg/kg/day) was 5,6.
